This assay has as its target T1, Pancreatic alpha-amylase (Sus scrofa, UniProt P00690).
T1 sequence (P00690 whole entry): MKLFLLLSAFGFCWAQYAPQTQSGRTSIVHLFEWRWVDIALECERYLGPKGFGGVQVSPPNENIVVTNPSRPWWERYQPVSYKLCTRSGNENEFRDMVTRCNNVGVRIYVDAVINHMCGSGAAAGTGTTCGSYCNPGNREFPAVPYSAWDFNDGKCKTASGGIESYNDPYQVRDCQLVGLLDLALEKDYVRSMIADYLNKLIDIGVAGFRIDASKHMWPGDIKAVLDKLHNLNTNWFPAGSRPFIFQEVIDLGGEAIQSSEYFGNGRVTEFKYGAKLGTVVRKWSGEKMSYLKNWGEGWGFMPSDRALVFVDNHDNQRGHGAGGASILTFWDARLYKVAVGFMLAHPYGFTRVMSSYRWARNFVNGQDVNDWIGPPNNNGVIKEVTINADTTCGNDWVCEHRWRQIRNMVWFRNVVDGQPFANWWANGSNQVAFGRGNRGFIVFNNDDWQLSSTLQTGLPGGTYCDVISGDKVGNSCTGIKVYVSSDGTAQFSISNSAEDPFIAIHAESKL
Description: Inhibition of pig pancreatic alpha-amylase by Bernfeld method.

In general, IC50 refers to the concentration that inhibits the measured activity by half. In the case of `CCOc1ccc2nc(N=C(CC(=O)c3ccc(Cl)cc3)SC)sc2c1`, the IC50 worked out at 17.9 µM.
Turning to `CSC(CC(=O)c1ccc(Br)cc1)=Nc1nc2ccccc2s1`, the IC50 worked out at 17.8 µM.

For the origin of these results see BindingDB's records for doi:10.1016/j.ejmech.2012.11.020 (North Maharashtra University, 2013).
